# Measured values reported in PMC5201331, “Subchronic Toxicities of HZ1006, a Hydroxamate-Based Histone Deacetylase Inhibitor, in Beagle Dogs and Sprague-Dawley Rats” (International Journal of Environmental Research and Public …, 2016).
# System: Beagle dogs
# Assay: Subchronic toxicity test in Beagle dogs: serum biochemistry
# Assay type: in vivo
# Description: HZ1006 was administered orally to dogs (four/sex/group) at doses of 80, 40, 20, 5 and 0 (control) mg/kg/day, and the dosage volume was 2 mL/kg. The dogs received test doses with the exact amounts on a weekly basis based on current body weights. […] The other dogs in the above groups were dissected on the planned days. For the other groups, half of the dogs were anatomized on d28 and the remaining half on d42.
# The following indexes were examined for the dogs used in the study, twice during the pre-dosage period and on d14, d28 and d42. The following parameters were evaluated on d28 and d42 for the rats in the study:
# The animal blood samples were collected in the tubes containing the coagulator and centrifuged at 500 g for 10 min; the supernatant was then collected into a new tube. The serum biochemistry indexes included the following: alanine aminotransferase (ALT), alkaline phosphatase (ALP), aspartate aminotransferase (AST), blood urea (BU), lactate dehydrogenase (LDH), total bilirubin (TBIL), creatinine (Crea), albumin (ALB), total protein (TP), triglycerides (TG), total cholesterol (TCH), γ-glutamyltranspeptidase (g-GT), glucose (GLU), creatine phosphokinase (CPK), uric acid (UA), phosphorus (P), and calcium (Ca^2+). The above parameters were analyzed using an Automatic Analyzer 7080 provided by Hitachi High-Technologies Corp. (Tokyo, Japan). An Na/K/Cl Analyzer EasyLyte PLUS from Medica Corp. (Bedford, MA, USA), was used to determine the levels of chloride (Cl^−), sodium (Na^+) and potassium (K^+) in the blood samples.
# [1] = dog ♀6 (80 mg/kg/day oral), d0 (pre-dose)
# [2] = dog ♀6 (80 mg/kg/day oral), d14 line (moribund, euthanized d8)
# [3] = dog ♀28 (40 mg/kg/day oral), d0 (pre-dose)
# [4] = dog ♀28 (40 mg/kg/day oral), d14 (died d16)
# [5] = dogs, 5 mg/kg/day oral, d0 (pre-dose)
# [6] = dogs, 5 mg/kg/day oral, d42 (recovery)
# [7] = dogs, 20 mg/kg/day oral, d0 (pre-dose)
smiles,measurement,setting,value
CCCCCCCNc1cc(/C=C/C(=O)NO)ccc1OCCN(CC)CC [HZ1006],ALP: Alkaline phosphatase,[1],1.50 µmol/s/L
same,ALT: Alanine aminotransferase,[1],487 nmol/s/L
same,AST: Aspartate aminotransferase,[1],456 nmol/s/L
same,BU: Blood urea,[1],4.04 mmol/L
same,CPK: Creatine phosphokinase,[1],3.06 µmol/s/L
same,CREA: Creatinine,[1],52.8 µmol/L
same,LDH: Lactate dehydrogenase,[1],2.78 µmol/s/L
same,TBIL: Total bilirubin,[1],2.95 µmol/L
same,TCH: Total cholesterol,[1],3.27 mmol/L
same,ALP: Alkaline phosphatase,[2],3.86 µmol/s/L
same,ALT: Alanine aminotransferase,[2],466 nmol/s/L
same,AST: Aspartate aminotransferase,[2],1907 nmol/s/L
same,BU: Blood urea,[2],15.20 mmol/L
same,CPK: Creatine phosphokinase,[2],57.57 µmol/s/L
same,CREA: Creatinine,[2],82.4 µmol/L
same,LDH: Lactate dehydrogenase,[2],2.91 µmol/s/L
same,TBIL: Total bilirubin,[2],11.53 µmol/L
same,TCH: Total cholesterol,[2],11.04 mmol/L
same,TG: Triglycerides,"dog ♀6 (80 mg/kg/day oral), printed in d0 line",1.60 mmol/L
same,TCH: Total cholesterol,"dog ♀6 (80 mg/kg/day oral), printed in d42 line",0.31 mmol/L
same,ALP: Alkaline phosphatase,[3],1.33 µmol/s/L
same,ALT: Alanine aminotransferase,[3],428 nmol/s/L
same,AST: Aspartate aminotransferase,[3],398 nmol/s/L
same,BU: Blood urea,[3],4.08 mmol/L
same,CPK: Creatine phosphokinase,[3],2.47 µmol/s/L
same,CREA: Creatinine,[3],47.9 µmol/L
same,LDH: Lactate dehydrogenase,[3],2.21 µmol/s/L
same,TBIL: Total bilirubin,[3],2.18 µmol/L
same,TCH: Total cholesterol,[3],5.85 mmol/L
same,ALP: Alkaline phosphatase,[4],3.16 µmol/s/L
same,ALT: Alanine aminotransferase,[4],852 nmol/s/L
same,AST: Aspartate aminotransferase,[4],4924 nmol/s/L
same,BU: Blood urea,[4],4.89 mmol/L
same,CPK: Creatine phosphokinase,[4],6.39 µmol/s/L
same,CREA: Creatinine,[4],37.8 µmol/L
same,LDH: Lactate dehydrogenase,[4],2.06 µmol/s/L
same,TBIL: Total bilirubin,[4],9.65 µmol/L
same,TCH: Total cholesterol,[4],10.73 mmol/L
same,ALP: Alkaline phosphatase,[5],1.47 ± 0.30 µmol/s/L
same,ALT: Alanine aminotransferase,[5],559 ± 120 nmol/s/L
same,AST: Aspartate aminotransferase,[5],463 ± 106 nmol/s/L
same,BU: Blood urea,[5],4.03 ± 0.52 mmol/L
same,CPK: Creatine phosphokinase,[5],2.94 ± 1.40 µmol/s/L
same,CREA: Creatinine,[5],51.5 ± 9.3 µmol/L
same,LDH: Lactate dehydrogenase,[5],3.08 ± 1.36 µmol/s/L
same,TBIL: Total bilirubin,[5],2.34 ± 0.31 µmol/L
same,TCH: Total cholesterol,[5],4.28 ± 0.36 mmol/L
same,TG: Triglycerides,[5],0.43 ± 0.11 mmol/L
same,ALP: Alkaline phosphatase,"dogs, 5 mg/kg/day oral, d14",1.45 ± 0.35 µmol/s/L
same,ALT: Alanine aminotransferase,"dogs, 5 mg/kg/day oral, d14",521 ± 116 nmol/s/L
same,AST: Aspartate aminotransferase,"dogs, 5 mg/kg/day oral, d14",442 ± 105 nmol/s/L
same,BU: Blood urea,"dogs, 5 mg/kg/day oral, d14",4.10 ± 0.90 mmol/L
same,CPK: Creatine phosphokinase,"dogs, 5 mg/kg/day oral, d14",2.63 ± 1.36 µmol/s/L
same,CREA: Creatinine,"dogs, 5 mg/kg/day oral, d14",51.0 ± 9.9 µmol/L
same,LDH: Lactate dehydrogenase,"dogs, 5 mg/kg/day oral, d14",2.27 ± 1.24 µmol/s/L
same,TBIL: Total bilirubin,"dogs, 5 mg/kg/day oral, d14",2.01 ± 0.41 µmol/L
same,TCH: Total cholesterol,"dogs, 5 mg/kg/day oral, d14",3.98 ± 0.64 mmol/L
same,TG: Triglycerides,"dogs, 5 mg/kg/day oral, d14",0.39 ± 0.08 mmol/L
same,ALP: Alkaline phosphatase,"dogs, 5 mg/kg/day oral, d28",1.51 ± 0.29 µmol/s/L
same,ALT: Alanine aminotransferase,"dogs, 5 mg/kg/day oral, d28",593 ± 105 nmol/s/L
same,AST: Aspartate aminotransferase,"dogs, 5 mg/kg/day oral, d28",424 ± 109 nmol/s/L
same,BU: Blood urea,"dogs, 5 mg/kg/day oral, d28",3.82 ± 0.51 mmol/L
same,CPK: Creatine phosphokinase,"dogs, 5 mg/kg/day oral, d28",2.43 ± 0.19 µmol/s/L
same,CREA: Creatinine,"dogs, 5 mg/kg/day oral, d28",51.4 ± 10.9 µmol/L
same,LDH: Lactate dehydrogenase,"dogs, 5 mg/kg/day oral, d28",2.71 ± 1.12 µmol/s/L
same,TBIL: Total bilirubin,"dogs, 5 mg/kg/day oral, d28",2.08 ± 0.52 µmol/L
same,TCH: Total cholesterol,"dogs, 5 mg/kg/day oral, d28",4.24 ± 0.56 mmol/L
same,TG: Triglycerides,"dogs, 5 mg/kg/day oral, d28",0.35 ± 0.11 mmol/L
same,ALP: Alkaline phosphatase,[6],1.45 ± 0.37 µmol/s/L
same,ALT: Alanine aminotransferase,[6],558 ± 90 nmol/s/L
same,AST: Aspartate aminotransferase,[6],451 ± 79 nmol/s/L
same,BU: Blood urea,[6],4.83 ± 0.20 mmol/L
same,CPK: Creatine phosphokinase,[6],2.97 ± 0.18 µmol/s/L
same,CREA: Creatinine,[6],55.6 ± 4.5 µmol/L
same,LDH: Lactate dehydrogenase,[6],2.21 ± 1.32 µmol/s/L
same,TBIL: Total bilirubin,[6],2.01 ± 0.33 µmol/L
same,TCH: Total cholesterol,[6],3.99 ± 0.41 mmol/L
same,TG: Triglycerides,[6],0.31 ± 0.09 mmol/L
same,ALP: Alkaline phosphatase,[7],1.48 ± 0.48 µmol/s/L
same,ALT: Alanine aminotransferase,[7],535 ± 92 nmol/s/L
same,AST: Aspartate aminotransferase,[7],456 ± 92 nmol/s/L
same,BU: Blood urea,[7],4.35 ± 0.98 mmol/L
same,CPK: Creatine phosphokinase,[7],2.98 ± 0.64 µmol/s/L
same,CREA: Creatinine,[7],51.6 ± 7.5 µmol/L
same,LDH: Lactate dehydrogenase,[7],2.85 ± 0.86 µmol/s/L
same,TBIL: Total bilirubin,[7],2.55 ± 0.28 µmol/L
same,TCH: Total cholesterol,[7],4.31 ± 0.36 mmol/L
same,TG: Triglycerides,[7],0.42 ± 0.09 mmol/L
same,ALP: Alkaline phosphatase,"dogs, 20 mg/kg/day oral, d14",0.85 ± 0.25 µmol/s/L
same,ALT: Alanine aminotransferase,"dogs, 20 mg/kg/day oral, d14",425 ± 105 nmol/s/L
same,AST: Aspartate aminotransferase,"dogs, 20 mg/kg/day oral, d14",384 ± 56 nmol/s/L
same,BU: Blood urea,"dogs, 20 mg/kg/day oral, d14",4.52 ± 1.05 mmol/L
same,CPK: Creatine phosphokinase,"dogs, 20 mg/kg/day oral, d14",2.43 ± 0.48 µmol/s/L
same,CREA: Creatinine,"dogs, 20 mg/kg/day oral, d14",58.6 ± 10.6 µmol/L
same,LDH: Lactate dehydrogenase,"dogs, 20 mg/kg/day oral, d14",1.23 ± 0.45 µmol/s/L
same,TBIL: Total bilirubin,"dogs, 20 mg/kg/day oral, d14",1.85 ± 0.16 µmol/L
same,TCH: Total cholesterol,"dogs, 20 mg/kg/day oral, d14",3.16 ± 0.34 mmol/L
same,TG: Triglycerides,"dogs, 20 mg/kg/day oral, d14",0.29 ± 0.08 mmol/L
